Data on 2 molecules can be found in patent US8012503B2, “Method of enhancing absorptions of transmucosal administration formulations” (The Chinese University of Hong Kong, priority 2004, dated 2011).

Data set [1] can be described thus: pHmax calculated from Ka, Si and Su. It counts as physicochemical. Particulars: calculated after determining Si and Su. The source says:
[formula] in which Ka is the ionization constant (dissociation constant) of the active compound in water, Si is the solubility of the ionized form of the compound, and Su is the solubility of the non-ionized form of the compound.
(§1) [formula] in which Ka is the ionization constant (dissociation constant) of the active compound of the medicament in water, Si is the solubility of the ionized form of the compound, and Su is the solubility of the non-ionized form of the compound. Si and Su can be easily obtained by measuring the drug solubility at two extreme pH levels where the ionized or non-ionized species are dominating. For example, after determining the Si and Su of propranolol and sildenafil, their pHmax values are calculated to be 7.62 and 4.25, respectively.
(§2) It has been investigated that permeability across the sublingual mucosa is dependent on the concentration of non-ionized propranolol in the environment. When a formulation of propranolol provides saliva with pH of about 7.2 to about 7.8, propranolol should maintain relatively high solubility as well as high fraction of non-ionized form in the saliva of human oral cavity. Preferably, the formulation for sublingual delivery is at about pH 7.6. This can be confirmed by equation (I). For propranolol.

Data set [2] in a line: Solubility of ionized and non-ionized forms and ionization constant. It counts as physicochemical.
Excerpt: as §1, §2

The conditions of data set [3]: oral administration of propranolol tablets, cited from earlier work.

Converted amounts (≈) assume the structure as drawn.

As to `CCCc1nn(C)c2c(=O)[nH]c(-c3cc(S(=O)(=O)N4CCN(C)CC4)ccc3OCC)nc12` [sildenafil], in data set [1], the pHmax was 4.25.

What is called solubility is the dissolved amount per volume that the medium holds. High values mean a readily soluble substance, low ones a poorly soluble substance. In data set [2], `CC(C)NCC(O)COc1cccc2ccccc12` (stereo not drawn) [propranolol, 1-(isopropylamino)-3-(1-naphthyloxy)-2-propanol] registered a solubility of 539 µg/mL (≈ 2080 µM). In data set [1], the pHmax is reported as 7.62. Also, in data set [3], the onset of action result is listed as “over 1 hr” and the plasma half-life is 2.8 to 4.4 h. Moreover, the bioavailability in data set [3] (hepatic first-pass effect) is 10-30%.
